This is an account of results in publication PMC5148701 (Journal of medicinal chemistry, 2016).

Assay [1] has as its target hD2L receptors (Homo sapiens, UniProt P14416). Put plainly: D2R Gi/o-mediated cAMP inhibition assay. The format is cell-based. As to conditions: for Emax: HEK-293T; for cAMP Emax (%): HEK293T cells, GloSensor-22F.
Assay [2] has as its target D2L receptors (Homo sapiens, UniProt P14416). Description: D2R β-arrestin-2 recruitment Tango assay. It counts as cell-based. As to conditions: for Emax: HTLA, read-out: β-arrestin Emax (%); for EC50: β-arrestin EC50 (nM).
Assay [3] deals with mouse D2Long (Mus musculus, UniProt P61168). Put plainly: BRET β-arrestin-2 recruitment assay with GRK2 co-expression. It counts as cell-based. The settings on record: for β-arrestin-2 recruitment agonist activity in BRET assay: up to 1 µM, GRK2 co-expressed.
Sequence of mouse D2Long (P61168 whole entry): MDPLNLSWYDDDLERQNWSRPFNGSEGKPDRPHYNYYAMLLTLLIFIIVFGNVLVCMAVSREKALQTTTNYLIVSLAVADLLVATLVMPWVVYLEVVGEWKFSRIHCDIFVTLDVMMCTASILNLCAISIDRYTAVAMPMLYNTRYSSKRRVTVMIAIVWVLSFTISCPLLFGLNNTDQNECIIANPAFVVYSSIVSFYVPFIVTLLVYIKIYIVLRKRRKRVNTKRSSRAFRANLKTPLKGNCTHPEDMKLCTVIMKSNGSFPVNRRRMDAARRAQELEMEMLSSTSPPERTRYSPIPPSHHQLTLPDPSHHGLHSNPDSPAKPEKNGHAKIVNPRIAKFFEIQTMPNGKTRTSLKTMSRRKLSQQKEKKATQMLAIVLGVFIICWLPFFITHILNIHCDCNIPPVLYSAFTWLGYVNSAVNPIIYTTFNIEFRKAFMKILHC
Assay [4] deals with T1, human D2Rlong (Homo sapiens, UniProt P14416). Put plainly: DiscoverX PathHunter D2R β-arrestin-2 recruitment assay. It counts as cell-based. The settings on record: D2R-expressing CHO cells; up to 10 µM; n=1, performed in duplicate.
T1 sequence (P14416 whole entry): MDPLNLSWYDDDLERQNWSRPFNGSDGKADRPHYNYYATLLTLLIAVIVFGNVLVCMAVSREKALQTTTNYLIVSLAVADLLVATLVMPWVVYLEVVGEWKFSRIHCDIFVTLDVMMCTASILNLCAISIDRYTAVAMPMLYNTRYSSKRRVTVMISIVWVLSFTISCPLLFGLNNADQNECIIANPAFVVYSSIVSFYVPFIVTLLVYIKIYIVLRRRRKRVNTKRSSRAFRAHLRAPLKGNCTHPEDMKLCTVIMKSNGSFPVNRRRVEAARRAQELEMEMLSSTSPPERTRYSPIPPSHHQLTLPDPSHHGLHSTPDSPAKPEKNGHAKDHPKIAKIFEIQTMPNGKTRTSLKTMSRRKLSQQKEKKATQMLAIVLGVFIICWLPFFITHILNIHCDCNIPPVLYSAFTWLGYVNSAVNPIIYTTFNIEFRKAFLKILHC
For assay [5], the target named is T1, human D2Rlong. Put plainly: cell-based. As to conditions: for Gαi1-Gγ2 dissociation BRET partial agonist activity relative to quinpirole: HEK293T cells.
Assay [6] deals with D2R (Homo sapiens, UniProt P14416). Put plainly: Radioligand binding, D2R.
Sequence of D2R (P14416 whole entry): as above
Assay [7] deals with D3R (Homo sapiens, UniProt P35462). Put plainly: Radioligand binding, D3R.
Sequence of D3R (P35462 whole entry): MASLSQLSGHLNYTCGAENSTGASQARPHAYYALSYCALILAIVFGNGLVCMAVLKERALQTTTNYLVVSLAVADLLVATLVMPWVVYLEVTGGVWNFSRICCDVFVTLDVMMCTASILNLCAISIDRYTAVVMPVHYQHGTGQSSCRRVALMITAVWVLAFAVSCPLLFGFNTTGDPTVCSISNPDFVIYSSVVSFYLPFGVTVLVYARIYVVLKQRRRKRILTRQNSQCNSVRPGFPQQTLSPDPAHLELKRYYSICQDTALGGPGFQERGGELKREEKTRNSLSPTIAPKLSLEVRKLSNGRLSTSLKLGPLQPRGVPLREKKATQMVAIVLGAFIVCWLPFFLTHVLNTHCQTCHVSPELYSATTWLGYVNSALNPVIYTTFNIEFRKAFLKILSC
In assay [8] the target is T2, D4R (Homo sapiens, UniProt P21917).
T2 sequence (P21917 1-419): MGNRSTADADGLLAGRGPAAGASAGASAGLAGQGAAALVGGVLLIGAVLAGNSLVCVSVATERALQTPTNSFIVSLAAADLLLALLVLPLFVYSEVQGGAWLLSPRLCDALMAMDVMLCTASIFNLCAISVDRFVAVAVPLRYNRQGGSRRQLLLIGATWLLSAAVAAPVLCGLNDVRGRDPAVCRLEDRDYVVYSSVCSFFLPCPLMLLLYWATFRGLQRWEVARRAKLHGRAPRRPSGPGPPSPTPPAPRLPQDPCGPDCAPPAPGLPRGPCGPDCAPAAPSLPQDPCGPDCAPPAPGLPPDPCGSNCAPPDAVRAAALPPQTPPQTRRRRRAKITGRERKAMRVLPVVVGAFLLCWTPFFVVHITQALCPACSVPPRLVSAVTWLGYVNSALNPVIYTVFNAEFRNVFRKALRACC
Put plainly: Radioligand binding, D4R.

The target in assay [9] is T3, 5-HT1A (Homo sapiens, UniProt P08908).
T3 sequence (P08908 1-422): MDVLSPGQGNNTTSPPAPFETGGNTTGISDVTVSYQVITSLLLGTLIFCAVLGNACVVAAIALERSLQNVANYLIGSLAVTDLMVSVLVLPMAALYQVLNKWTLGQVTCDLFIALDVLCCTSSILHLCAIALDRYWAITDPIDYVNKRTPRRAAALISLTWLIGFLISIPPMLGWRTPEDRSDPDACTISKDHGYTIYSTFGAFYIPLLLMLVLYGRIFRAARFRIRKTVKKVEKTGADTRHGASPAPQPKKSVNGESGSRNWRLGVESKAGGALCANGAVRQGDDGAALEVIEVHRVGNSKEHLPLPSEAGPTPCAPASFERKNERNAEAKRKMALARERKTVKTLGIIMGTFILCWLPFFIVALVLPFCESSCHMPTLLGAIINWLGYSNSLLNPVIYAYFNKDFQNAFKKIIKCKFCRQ
Description: Radioligand binding, 5-HT1A.

Assay [10] concerns the target 5-HT1B (Homo sapiens, UniProt P28222). Description: Radioligand binding, 5-HT1B.
Assay [11] deals with 5-HT1D (Homo sapiens, UniProt P28221). Put plainly: Radioligand binding, 5-HT1D.
Sequence of 5-HT1D (P28221 whole entry, species assumed): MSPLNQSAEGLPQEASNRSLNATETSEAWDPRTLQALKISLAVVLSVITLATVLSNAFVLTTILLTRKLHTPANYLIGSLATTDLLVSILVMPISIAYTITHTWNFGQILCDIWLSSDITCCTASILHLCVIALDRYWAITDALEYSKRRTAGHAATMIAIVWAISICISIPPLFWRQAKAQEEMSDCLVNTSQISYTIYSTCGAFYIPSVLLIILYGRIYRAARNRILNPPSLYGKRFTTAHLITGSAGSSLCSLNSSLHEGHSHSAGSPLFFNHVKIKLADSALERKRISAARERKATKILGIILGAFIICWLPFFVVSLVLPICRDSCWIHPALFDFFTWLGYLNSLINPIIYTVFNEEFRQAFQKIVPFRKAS
Assay [12] has as its target 5-HT2A (Homo sapiens, UniProt P28223). Description: Radioligand binding, 5-HT2A.
For assay [13], the target named is 5-HT2B (Homo sapiens, UniProt P41595). Description: Radioligand binding, 5-HT2B.
Sequence of 5-HT2B (P41595 whole entry, species assumed): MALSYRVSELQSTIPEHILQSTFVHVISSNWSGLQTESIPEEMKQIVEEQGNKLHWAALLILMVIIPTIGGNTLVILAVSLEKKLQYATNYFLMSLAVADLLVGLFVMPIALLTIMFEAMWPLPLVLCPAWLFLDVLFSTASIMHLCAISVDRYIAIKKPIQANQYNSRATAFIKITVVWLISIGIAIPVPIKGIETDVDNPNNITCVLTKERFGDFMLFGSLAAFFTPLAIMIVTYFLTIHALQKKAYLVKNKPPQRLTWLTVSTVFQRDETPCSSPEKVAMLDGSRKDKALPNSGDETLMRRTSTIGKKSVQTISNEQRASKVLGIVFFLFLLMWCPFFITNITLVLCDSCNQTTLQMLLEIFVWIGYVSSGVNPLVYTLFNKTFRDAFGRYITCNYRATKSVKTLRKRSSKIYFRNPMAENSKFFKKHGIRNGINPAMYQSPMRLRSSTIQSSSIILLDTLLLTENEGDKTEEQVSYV
In assay [14] the target is 5-HT7 (Homo sapiens, UniProt P34969). Description: Radioligand binding, 5-HT7.
Sequence of 5-HT7 (P34969 whole entry, species assumed): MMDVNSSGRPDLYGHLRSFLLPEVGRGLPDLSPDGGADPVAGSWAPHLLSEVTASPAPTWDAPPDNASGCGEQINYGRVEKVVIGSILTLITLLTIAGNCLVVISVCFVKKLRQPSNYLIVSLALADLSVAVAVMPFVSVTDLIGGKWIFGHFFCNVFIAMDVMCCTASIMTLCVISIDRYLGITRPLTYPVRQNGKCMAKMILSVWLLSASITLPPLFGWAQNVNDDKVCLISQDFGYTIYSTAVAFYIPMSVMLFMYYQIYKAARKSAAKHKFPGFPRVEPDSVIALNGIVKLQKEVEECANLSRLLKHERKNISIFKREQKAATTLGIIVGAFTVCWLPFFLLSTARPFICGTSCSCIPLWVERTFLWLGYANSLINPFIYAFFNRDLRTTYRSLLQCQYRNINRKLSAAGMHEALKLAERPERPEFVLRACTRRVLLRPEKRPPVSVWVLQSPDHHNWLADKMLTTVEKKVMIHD
The target in assay [15] is D1R (Homo sapiens, UniProt P21728). Description: Radioligand binding, D1R.
Sequence of D1R (P21728 whole entry): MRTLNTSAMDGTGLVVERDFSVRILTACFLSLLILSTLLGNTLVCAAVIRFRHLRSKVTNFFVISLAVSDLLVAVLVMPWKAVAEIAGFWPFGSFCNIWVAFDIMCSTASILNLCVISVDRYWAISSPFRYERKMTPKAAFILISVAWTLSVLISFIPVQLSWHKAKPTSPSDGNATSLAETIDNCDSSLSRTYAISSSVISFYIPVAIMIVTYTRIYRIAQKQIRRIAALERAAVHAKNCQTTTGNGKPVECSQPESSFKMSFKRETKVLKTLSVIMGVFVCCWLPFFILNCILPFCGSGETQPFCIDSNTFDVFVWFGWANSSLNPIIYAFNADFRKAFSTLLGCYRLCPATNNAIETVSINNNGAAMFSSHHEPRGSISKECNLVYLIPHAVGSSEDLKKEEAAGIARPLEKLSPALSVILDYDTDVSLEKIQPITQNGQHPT
The target of assay [16] is D5R (Homo sapiens, UniProt P21918). Description: Radioligand binding, D5R.
Sequence of D5R (P21918 whole entry): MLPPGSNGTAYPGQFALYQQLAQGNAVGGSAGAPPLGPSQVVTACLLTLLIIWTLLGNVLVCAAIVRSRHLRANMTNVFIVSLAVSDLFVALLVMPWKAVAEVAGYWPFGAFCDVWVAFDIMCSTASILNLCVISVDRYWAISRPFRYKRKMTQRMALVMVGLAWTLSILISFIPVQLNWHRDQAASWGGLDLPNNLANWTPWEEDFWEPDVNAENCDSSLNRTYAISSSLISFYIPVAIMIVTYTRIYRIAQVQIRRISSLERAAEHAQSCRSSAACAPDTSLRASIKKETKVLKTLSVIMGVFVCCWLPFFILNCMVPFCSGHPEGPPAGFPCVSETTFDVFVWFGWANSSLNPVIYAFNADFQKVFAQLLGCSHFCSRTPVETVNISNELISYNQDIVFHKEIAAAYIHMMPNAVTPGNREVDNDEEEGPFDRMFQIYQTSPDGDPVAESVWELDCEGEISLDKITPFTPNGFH
For assay [17], the target named is T4, 5-HT3 (Homo sapiens, UniProt P46098).
T4 sequence (P46098 24-478): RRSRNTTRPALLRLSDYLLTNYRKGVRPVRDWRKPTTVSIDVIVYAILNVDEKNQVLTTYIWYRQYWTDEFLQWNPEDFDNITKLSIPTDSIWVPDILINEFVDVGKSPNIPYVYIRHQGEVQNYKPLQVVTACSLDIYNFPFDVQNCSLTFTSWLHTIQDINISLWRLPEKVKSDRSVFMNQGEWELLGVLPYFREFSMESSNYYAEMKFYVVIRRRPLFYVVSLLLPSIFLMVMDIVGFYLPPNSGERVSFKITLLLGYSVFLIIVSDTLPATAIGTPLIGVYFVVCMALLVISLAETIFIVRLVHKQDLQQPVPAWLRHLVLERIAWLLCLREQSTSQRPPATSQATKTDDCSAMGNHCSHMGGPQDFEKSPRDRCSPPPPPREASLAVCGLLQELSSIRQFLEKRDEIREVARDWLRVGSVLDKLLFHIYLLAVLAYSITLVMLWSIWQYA
Put plainly: Radioligand binding, 5-HT3.

Assay [18] has as its target 5-HT5A (Homo sapiens, UniProt P47898). Put plainly: Radioligand binding, 5-HT5A.
Assay [19] addresses 5-HT6 (Homo sapiens, UniProt P50406). Description: Radioligand binding, 5-HT6.
The mark [20] stands for this setting: read-out: cAMP Emax (%), HEK293T cells, GloSensor-22F, normalized to maximum cAMP inhibition by quinpirole (100%).
Where [21] appears, read: Binding affinity Ki (nM), 5-HT1A.
The mark [22] stands for this setting: Binding affinity Ki (nM), 5-HT2B.
Where [23] appears, read: normalized to maximum cAMP inhibition by quinpirole (100%).

Molecules are shown by their SMILES. “And” between values parts separate entries of the source, which are not always exact repeats. Equal entries are not always repeated. “Also recorded” adds a separate entry of the source. Where two headings read alike, the source gives them in different places.

Sequence of D2L receptors (P14416 whole entry): as the sequence (P14416 whole entry) above
Sequence of hD2L receptors (P14416 whole entry): as above
Sequence of 5-HT1B (P28222 whole entry, species assumed): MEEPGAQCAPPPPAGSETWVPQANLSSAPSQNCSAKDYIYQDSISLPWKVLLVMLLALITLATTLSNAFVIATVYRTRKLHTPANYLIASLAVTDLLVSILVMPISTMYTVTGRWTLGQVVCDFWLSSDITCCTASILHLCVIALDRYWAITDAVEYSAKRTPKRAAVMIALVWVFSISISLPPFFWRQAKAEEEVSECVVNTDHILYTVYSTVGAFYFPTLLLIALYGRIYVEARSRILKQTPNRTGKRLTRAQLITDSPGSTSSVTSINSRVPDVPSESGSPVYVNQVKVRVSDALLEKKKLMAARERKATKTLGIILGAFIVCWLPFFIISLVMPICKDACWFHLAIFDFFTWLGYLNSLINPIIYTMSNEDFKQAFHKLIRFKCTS
Sequence of 5-HT2A (P28223 whole entry, species assumed): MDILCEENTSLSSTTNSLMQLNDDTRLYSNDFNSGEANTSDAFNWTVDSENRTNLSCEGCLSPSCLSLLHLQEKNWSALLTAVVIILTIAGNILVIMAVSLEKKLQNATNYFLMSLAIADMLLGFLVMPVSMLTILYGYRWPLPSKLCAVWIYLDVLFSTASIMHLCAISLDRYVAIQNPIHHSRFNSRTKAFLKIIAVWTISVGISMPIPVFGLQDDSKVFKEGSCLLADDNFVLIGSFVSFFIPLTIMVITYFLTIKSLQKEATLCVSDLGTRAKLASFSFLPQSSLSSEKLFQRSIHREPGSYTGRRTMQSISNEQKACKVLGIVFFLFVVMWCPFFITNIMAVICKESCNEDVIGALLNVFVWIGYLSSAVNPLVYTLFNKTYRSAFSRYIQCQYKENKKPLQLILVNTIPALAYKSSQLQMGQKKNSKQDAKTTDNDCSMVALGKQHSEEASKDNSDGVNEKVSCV
Sequence of 5-HT5A (P47898 whole entry, species assumed): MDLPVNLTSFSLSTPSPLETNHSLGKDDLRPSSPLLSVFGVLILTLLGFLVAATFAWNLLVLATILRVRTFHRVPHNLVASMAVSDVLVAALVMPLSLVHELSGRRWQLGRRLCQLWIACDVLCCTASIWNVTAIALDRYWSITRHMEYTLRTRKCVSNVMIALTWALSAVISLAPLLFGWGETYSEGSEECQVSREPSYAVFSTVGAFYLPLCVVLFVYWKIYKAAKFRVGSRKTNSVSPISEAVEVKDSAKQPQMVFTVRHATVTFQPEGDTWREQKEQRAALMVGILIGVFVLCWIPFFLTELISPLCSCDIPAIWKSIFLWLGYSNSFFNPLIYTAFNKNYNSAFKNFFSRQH

`Cc1nc2cc(OCCCCN3CCN(c4cccc(Cl)c4Cl)CC3)ccc2s1` [Compound 1, 5-(4-(4-(2,3-Dichlorophenyl)piperazin-1-yl)butoxy)-2-methylbenzo[d]thiazole]: the results for the maximal effect (Emax) in assay [1] (setting [20]) and in [2] were 50% and 23%, respectively. In addition, the “inhibition of dopamine-stimulated D2R G protein activation as measured by cAMP inhibition” value in [1] (antagonist mode, Figure S2) is on record as “partial inhibition”. For the same compound, the 50% effective concentration (EC50) in [2] (Tango assay, HTLA cells) was 13 nM; in assay [5] it was 3.6 nM. The compound further showed an IC50 in [3] of 18 nM. The “antagonist activity on dopamine-stimulated β-arrestin-2 recruitment (BRET)” value in assay [3] (antagonist mode) is “full antagonist activity”. In assay [3], the “β-arrestin-2 recruitment agonist activity in BRET assay” value was “no activity”. Besides, the “β-arrestin recruitment activity as measured by DiscoverX” value (“β-arrestin recruitment activity” below) in [4] is “lack of β-arrestin-2 recruitment activity; also recorded: no activity”. For the same compound, the “Gαi1-Gγ2 dissociation BRET partial agonist activity relative to quinpirole” value in [5] was 57%. Moreover, the Ki in assay [6] was 150 nM; in assay [7] it was 13 nM; in assay [8], 82 nM; in [9] (setting [21]), 86 nM; in assay [10], 1700 nM; in assay [11], 320 nM. Moreover, the Ki in assay [12] worked out at 120 nM; in assay [13] (setting [22]), 38 nM; in [14], 140 nM.
Regarding `CNc1nc2cc(OCCCCN3CCN(c4cccc(Cl)c4Cl)CC3)ccc2s1` [Compound 24, 5-(4-(4-(2,3-Dichlorophenyl)piperazin-1-yl)butoxy)-N methylbenzo[d]thiazol-2-amine], the “cAMP Emax (%)” value in assay [1] (setting [23]) is 40%. Besides, the “β-arrestin Emax (%)” value in [2] (Tango assay, HTLA cells, normalized to quinpirole (100%)) is listed as <20%. The “β-arrestin-2 recruitment agonist activity in BRET assay” value in [3] is “not active; also recorded: no β-arrestin recruitment”. Besides, the Ki in assay [6] (read-out: Binding affinity Ki (nM), D2R, radioligand binding) was 60 nM; in [15] (read-out: Binding affinity Ki (nM), D1R, radioligand binding), 1100 nM; in [7] (read-out: Binding affinity Ki (nM), D3R, radioligand binding), 35 nM; in [8] (read-out: Binding affinity Ki (nM), D4R, radioligand binding), 280 nM; in assay [16] (read-out: Binding affinity Ki (nM), D5R, radioligand binding) it was 1500 nM; in assay [9] (read-out: Binding affinity Ki (nM), 5-HT1A), 55 nM. Further, the Ki was 1400 nM in assay [10] (read-out: Binding affinity Ki (nM), 5-HT1B, radioligand binding); 390 nM in assay [11] (read-out: Binding affinity Ki (nM), 5-HT1D, radioligand binding); 72 nM in assay [12] (read-out: Binding affinity Ki (nM), 5-HT2A, radioligand binding); 12 nM in assay [13] (read-out: Binding affinity Ki (nM), 5-HT2B); 100 nM in assay [14] (read-out: Binding affinity Ki (nM), 5-HT7, radioligand binding).
In the case of `CCc1nc2cc(OCCCCN3CCC(c4cccc(Cl)c4Cl)CC3)ccc2s1` [Compound 46, 5-(4-(4-(2,3-Dichlorophenyl)piperidin-1-yl)butoxy)-2-ethylbenzo[d]thiazole], the “cAMP Emax (%)” value in assay [1] (setting [23]) amounted to 43%. The Emax in assay [1] (setting [20]) was 40 to 50%; in [2], < 20%. Also, in assay [3], the “β-arrestin-2 recruitment agonist activity in BRET assay” value is listed as “not active; also recorded: no β-arrestin recruitment”. The Ki in assay [6] came to 170 nM; in assay [15] it was 1700 nM; in assay [7], 100 nM; in [8] it was 1800 nM; in assay [9] (setting [21]), 100 nM; in assay [11], 820 nM. In addition, the inhibition constant Ki was 140 nM in [12], 71 nM in assay [13] (setting [22]), 1500 nM in assay [17] and 1600 nM in [18].
With `CC(C)c1nc2cc(OCCCCN3CCN(c4cccc5c4OCCO5)CC3)ccc2s1` [Compound 53, 5-(4-(4-(2,3-Dihydrobenzo[b][1,4]dioxin-5-yl)piperazin-1-yl)butoxy)-2-isopropylbenzo[d]thiazole], the Emax in assay [1] (setting [20]) was 30 to 40%; in assay [2], < 20%. In addition, in [3], the “β-arrestin-2 recruitment agonist activity in BRET assay” value is reported as “not active; also recorded: no β-arrestin recruitment”. For the same compound, the “β-arrestin recruitment activity” value in assay [4] is recorded as “lack of β-arrestin-2 recruitment activity; also recorded: no activity”. Moreover, the response in assay [5] was half-maximal at 4.6 nM (EC50). For the same compound, the “Gαi1-Gγ2 dissociation BRET partial agonist activity relative to quinpirole” value in [5] is on record as 47%. Also, the Ki in assay [6] was determined as 30 nM; in assay [15], 2000 nM; in assay [7], 31 nM; in [8] it was 77 nM; in assay [16] it was 1100 nM; in assay [9] (setting [21]), 1.4 nM. Besides, the Ki in assay [10] was determined as 420 nM; in assay [11], 100 nM; in assay [12], 29 nM; in [17] it was 2600 nM; in [14], 31 nM.
In the case of `CNc1nc2cc(OCCCCN3CCC(c4cccc(Cl)c4Cl)CC3)ccc2s1` [Compound 54, 5-(4-(4-(2,3-Dichlorophenyl)piperidin-1-yl)butoxy)-N-methylbenzo[d]thiazol-2-amine], in assay [1] (setting [20]), the Emax was 40 to 50%. Besides, the “β-arrestin-2 recruitment agonist activity in BRET assay” value in [3] is given as “not active; also recorded: no β-arrestin recruitment”. The Ki in assay [6] is 99 nM; in [15], 1100 nM; in assay [7] it was 69 nM; in assay [8] it was 430 nM; in [16] it was 1800 nM; in assay [9] (setting [21]), 66 nM. Also, the Ki in assay [10] is 2600 nM; in assay [11], 410 nM; in assay [12], 70 nM; in [13] (setting [22]), < 20 nM; in [19] it was 410 nM.
Consider `Oc1c(CN2CCN(c3ccccn3)CC2)cc(Cl)c2cccnc12` [Compound 59, 5-Chloro-7-((4-(pyridin-2-yl)piperazin-1-yl)methyl)quinolin-8-ol, reference compound], for which the Emax was determined as 63% in assay [1] (read-out: cAMP Emax (%)); 67% in assay [2]; 68% in assay [3] (HEK-293T, read-out: β-arrestin-2 recruitment BRET Emax (% of quinpirole)). Further, the EC50 in assay [2] (Tango assay, HTLA cells) was 102 nM and 46 nM. The “β-arrestin recruitment activity” value in assay [4] is given as “lack of β-arrestin-2 recruitment activity; also recorded: no activity”.
